# How the values were obtained:
# [1] = tested on: BD140A; test: qHTS cell viability (Cell Titer-Glo ATP quantitation); type: cell-based
# Method: (§1) NCI-H295R and SW-13 cells were cultured in Dulbecco's modified Eagle medium (DMEM) supplemented with 2.5% NuSerum (BD Biosciences, San Jose, Calif.) and 0.1% ITS premix (BD Biosciences, San Jose, Calif.). BD140A cells, provided by Drs. Kimberly Bussey and Michael Demeure (Phoenix, Ariz.), were cultured in RPMI supplemented with 1% […] (Gibco, Grand Island, N.Y.), 1% penicillin-streptomycin (Gibco, Grand Island, N.Y.), and 10% fetal bovine serum (FBS; Invitrogen, Carlsbad, Calif.). The cell lines were authenticated using short tandem repeat profiling. Cells were maintained in a 5% CO2 atmosphere at 37° C.
# (§2) The National Institutes of Health Chemical Genomic Center pharmaceutical library consists of 4,292 small molecules and compounds. Compounds were prepared as described previously (Mehta et al., Clin Cancer Res. 21:4123-32, 2015; hereby incorporated by reference in its entirety). The cell viability of treated cells was measured using the luciferase-coupled ATP quantitation assay, Cell Titer-Glo (Promega, Madison, Wis.). Doxorubicin hydrochloride and tetraoctylammonium bromide were used as positive controls. The final concentration of compounds in the assay ranged from 0.6 nM to 46 μM. The titration-response data was plotted and modeled by a four-parameter logistic fit-to-yield half-maximal inhibitory concentration (IC50) and efficacy (maximal response), as compared to tetraoctylammonium bromide values.
# [2] = tested on: NCI-H295R; test: as above; type: cell-based; conditions: Homo sapiens
# Method: as §1, §2
# [3] = tested on: SW-13; test: as above; type: cell-based; conditions: Homo sapiens, SW13; SW-13, qHTS
# Method: as §1, §2
# [4] = tested on: adrenocortical carcinoma cell lines NCIH295R, BD140A and SW-13; test: qHTS of 4,292 compounds, activity in all three ACC cell lines; type: cell-based; conditions: lower IC50 and higher efficacy vs cisplatin, doxorubicin, etoposide, mitotane, streptozocin (FIG. 1)
# Method: as §1
# as §2, with “The titration-response data was plotted and modeled by a four-parameter logistic fit-to-yield half-maximal inhibitory concentration (IC50) and efficacy (maximal response), as compared to tetraoctylammonium bromide values.” left out
# [5] = tested on: three ACC cell lines (BD140A, SW-13, NCI-H295R); test: Cellular proliferation assay (CyQuant), monolayer culture; type: cell-based
# Method: 3×10^3 and 6×10^3 cells were plated in 96-well plates depending on the cell line. 100 μL of fresh culture medium containing the drug or vehicle was added. Cell count was determined using the CyQuant kit (Life Technologies, Grand Island, N.Y.), according to the manufacturer's instructions, and cell number was measured using a SpectraMax M5 microplate reader (ex485/em538; Molecular Devices, Sunnyvale, Calif.). Assays were performed in quadruplicate and the experiments were repeated three times.
# [6] = tested on: NCI-H295R MCAs; test: Three-dimensional multicellular aggregates (MCA); type: cell-based; conditions: after four weeks of treatment
# Method: (§3) NCI-H295R and SW-13 cells, which form multicellular aggregates (MCA) or spheroids, were plated in Ultra Low Cluster 24-well plates (Costar, Corning, N.Y.) at 1×10^5 cells/0.5 mL or 6×10^4 cells/0.5 mL depending on the cell line. Spheroids were allowed to develop for one or two weeks at 37° C. in 5% CO2, and media was exchanged twice a week. Spheroids were treated with niclosamide or the vehicle at varying concentrations, and imaged weekly.
# [7] = tested on: SW-13 MCAs; test: Three-dimensional multicellular aggregates (MCA); type: cell-based; conditions: SW-13, after three weeks of treatment
# Method: as §3
# [8] = tested on: BD140A cells; test: Caspase 3/7 activity assay (Caspase-Glo 3/7); type: cell-based
# Method: (§4) Cells were plated in 96-well plates and treated with niclosamide or the vehicle. Caspase 3/7 activity was measured using the Caspase-Glo 3/7 assay (Promega, Madison, Wis.), according to manufacturer's instructions.
# [9] = tested on: NCI-H295R; test: Caspase 3/7 activity assay (Caspase-Glo 3/7); type: cell-based; conditions: 48 hours
# Method: as §4
# [10] = tested on: SW-13; test: Caspase 3/7 activity assay (Caspase-Glo 3/7); type: cell-based; conditions: SW-13, 96 hours
# Method: as §4
# [11] = tested on: all three ACC cell lines; test: Cell cycle analysis (propidium iodide flow cytometry); type: cell-based; conditions: 48 hours, more cells in G1, fewer in S phase
# Method: Cells plated in six-well plates were treated with niclosamide or the vehicle. At 48 hours, cells were fixed for 30 minutes in 70% ethanol at 4° C., and stained with 50 μg/mL of propidium iodide containing […] of ribonuclease A. Flow cytometry was performed on a Canto I flow cytometer (Becton-Dickinson, Franklin Lakes, N.J.) using CellQuest software (BD Biosciences, San Jose, Calif.). Data was generated for at least 20,000 events per sample and analyzed using Modfit software (Verity Software House, Inc., Topsham, Me.).
# [12] = tested on: all three cell lines (ACC); test: Seahorse XF96 mitochondrial metabolism assay (OCR, ECAR); type: cell-based
# Method: The Seahorse XF96 assay was performed according to the manufacturer's instructions (Seahorse Bioscience, Billerica, Mass.). Briefly, cells were plated in XF96 plates and media was replaced with unbuffered DMEM supplemented with 2 mmol of glutamine and 2.5 g/L of D-Glucose. After 1 hour in a 37° C. CO2-free incubator, the oxygen consumption rate (OCR) and extracellular acidification rate (ECAR) were measured before and after injection of the drug, the vehicle, or carbonyl cyanide 4-(trifluoromethoxy) phenylhydrazone (FCCP) using the Seahorse XF96 extracellular flux analyzer.
# [13] = tested on: ACC cells; test: TMRE staining, mitochondrial membrane potential; type: cell-based; conditions: after 3 hours and 6 hours of treatment
# Method: Cells in 96-well plates were treated with the drug or vehicle. Cells were then stained with 200 nM of tetramethylrhodamine, ethyl ester (TMRE) for 20 minutes at 37° C. and were washed with PBS; fluorescence was measured using a SpectraMax M5e 96-well fluorescence microplate reader. FCCP was used as a positive control.
# [14] = tested on: β-catenin; test: Western blot analysis of β-catenin; type: cell-based; conditions: all three cell lines
# Method: (§5) The following antibodies were used: anti-beta catenin (1:1,000) from R&D Systems (Minneapolis, Minn.); anti-GAPDH (1:3,000) from Santa Cruz Biotechnology (Dallas, Tex.); anti-N-cadherin (1:4,000) from EMD Millipore (Billerica, Mass.); and anti-vimentin (1:5,000) from Cell Signaling Technology (Boston, Mass.). Niclosamide (2′,5-dichloro-4′-nitrosalicylanilide) was purchased from Sigma-Aldrich (St. Louis, Mo.) and dissolved in DMSO for in vitro studies.
# (§6) Cell lysates were analyzed by SDS-PAGE and transferred to a PVDF membrane. The membranes were incubated with the appropriate primary antibodies overnight at 4° C., followed by horseradish peroxidase conjugated IgG (anti-rabbit 1:3,000, Cell Signaling Technology; anti-mouse 1:3,000, Santa Cruz Biotechnology; anti-goat 1:2,000, R&D Systems, Inc.). Proteins were detected by enhanced chemiluminescence (ECL; Thermoscientific, Rockford, Ill.).
# [15] = tested on: AKT pathway; test: AKT pathway inhibition (FIGS. 6A and 6B); type: cell-based; conditions: BD140A and H295R cells
# [16] = tested on: NCI-H295R and SW-13; test: Transwell (Boyden chamber) migration assay; type: cell-based; conditions: transwell migration assays
# Method: (§7) NCI-H295R and SW-13 cells were plated in six-well plates and treated with varying concentrations of niclosamide or the vehicle for 24 hours. Cells were trypsinized and plated in transwell chambers (BD Biosciences, San Jose, Calif.) at a density of 1×10^5 cells per 0.5 mL. The lower chamber was filled with DMEM supplemented with 10% FBS as a chemoattractant. Cells were allowed to migrate for 24 hours or 48 hours depending on the cell line, and were fixed and stained with Diff-Quik (Dade Behring, Newark, N.J.). Cells were imaged and counted in three random fields per well, and the experiments performed in triplicate. […] The cells were scratched using a sterile pipette tip and photographed at various time points.
# [17] = tested on: BD140A cells; test: Wound-healing migration assay; type: cell-based; conditions: wound-heal assay, after 6 hours and 12 hours, vs vehicle control
# Method: as §7
# [18] = tested on: N-cadherin; test: Western blot analysis of EMT mediators; type: cell-based; conditions: 48 hours of treatment
# Method: as §5, §6
# [19] = tested on: vimentin; test: Western blot analysis of EMT mediators; type: cell-based; conditions: 48 hours of treatment
# Method: as §5, §6
# [20] = tested on: NCI-H295R xenografts; test: ACC xenograft tumor growth in vivo; parameters: species or system Nu+/Nu+ mice; conditions: for inhibition in tumor growth: four weeks, vs vehicle control
# Method: Mice were maintained according to National Institutes of Health (NIH) Animal Research Advisory Committee (ARAC) guidelines. 5×10^6 NCI-H295R cells were injected into the flank of Nu^+/Nu^+mice. Tumors were allowed to grow and mice were randomized into three treatment groups (8 mice per treatment group). M ice were treated with 100 mg/kg of niclosamide, 200 mg/kg of niclosamide, or the vehicle (PEG500) everyday by oral gavage. Tumor sizes were measured in two dimensions every week with calipers and recorded.
# [21] = tested on: NCI-H295R cells; test: Proliferation with niclosamide, mitotane or the combination (CyQuant, Chou-Talalay); type: cell-based; conditions: niclosamide 0.05-0.2 μM or mitotane 0.5-2 μM alone
# Method: This example describes a method used to evaluate proliferation of H2965R adrenocortical carcinoma cells in the presence of (1) niclosamide alone (at 0.05 μM, 0.075 μM, 0.1 μM, 0.15 μM, or 0.2 μM), (2) mitotane alone (at 0.5 μM, 0.75 μM, 1 μM, 1.5 μM, or 2 μM), or (3) a combination of both niclosamide and mitotane.
# NCI-H295R cells were cultured in Dulbecco modified Eagle medium (DMEM) supplemented with 2.5% NuSerum (BD Biosciences, San Jose, Calif.) and 0.1% ITS premix (BD Biosciences, San Jose, Calif.). Cells were maintained in 5% CO2 atmosphere at 37° C. 3×10^3 cells were plated in 96-well plates. […] Cell count was determined using the CyQuant kit (Life technologies, Grand Island, N.Y.) according to the manufacturer's instructions, and absorbance (cell number) was measured using a SpectraMax M5 microplate reader (Molecular Devices, Sunnyvale, Calif., ex485/em538). Assays were performed in quadruplicate and the experiments were repeated three times.
# Statistical analysis was performed using GraphPad Prism 6 software (GraphPad Software, La Jolla, Calif.). Data was analyzed using a two-tailed Mann-Whitney test. Statistical significance was defined as a p-value of less than 0.05. Data are presented as mean±standard deviation (SD). […] Defined as a CI index of <1=synergistic, 1=additive, and >1 antagonistic.
# [22] = humans; read-out: known Cmax in humans; cited from earlier work
# [23] = cited from earlier work
# [24] = in vivo; cited from earlier work
compound,measurement,setting,value
"O=C(Nc1ccc([N+](=O)[O-])cc1Cl)c1cc(Cl)ccc1O [niclosamide, 5-chloro-N-(2-chloro-4-nitrophenyl)-2-hydrobenzamide]",IC50,[1],120 nM
same,IC50,[2],530 nM
same,IC50,[3],150 nM
same,activity compared to commonly used drugs for ACC,[4],better activity
same,cytotoxicity (killing pre-existing cancer cells),[5]; at higher concentrations,cytotoxic
same,cellular proliferation,"[5]; monolayer cell culture, three ACC cell lines",inhibited proliferation in a time- and dose-dependent manner
same,effect on MCAs,[6],growth inhibition and disintegration of the MCAs
same,effect on MCAs,[7],growth inhibition and disintegration of the MCAs
same,caspase 3/7 activity,[8],no increase
same,caspase 3/7 activity,[9],increased
same,caspase 3/7 activity,[10],increased
same,cell cycle progression,[11],induced G1 cell cycle arrest
same,extracellular acidification rate (ECAR),[12],increased
same,oxygen consumption rate (OCR),[12],increased
same,mitochondrial membrane potential (TMRE),[13],decrease
same,expression of β-catenin,[14],reduced
same,AKT pathway,[15],inhibited
same,cellular migration,[16],Reduced
same,cell migration,[17],decreased
same,expression of N-cadherin,[18],reduced
same,expression of vimentin,[19],reduced
same,tumor growth inhibition,"[20]; 100 mg/kg and 200 mg/kg groups, 8 weeks, vs control group",more than 90%
same,tolerability / toxicity in mice,[20]; 100 mg/kg and 200 mg/kg oral,no observed toxicity or side effects
same,inhibition in tumor growth,[20]; 100 mg/kg everyday by oral gavage,60%
same,inhibition in tumor growth,[20]; 200 mg/kg everyday by oral gavage,80%
same,mouse body weight,[20]; treated groups vs vehicle,no significant weight differences
same,"reducing proliferation of H295R cells, single agent",[21],some effect
same,Cmax,[22],18.3 µM
same,water solubility,[23],low
same,oral bioavailability,[24],low
Clc1ccc(C(c2ccccc2Cl)C(Cl)Cl)cc1 (stereo not shown) [mitotane],"reducing proliferation of H295R cells, single agent",[21],some effect

# From patent US20190054047A1, “TREATMENT OF MALIGNANT ADRENOCORTICAL TUMOR WITH NICLOSAMIDE AND OTHER COMPOUNDS” (The U.S.A., as represented by the Secretary, Department of …, priority 2016, published 2019)
